From US8309577B2, “Quinuclidine compounds as α-7 nicotinic acetylcholine receptor ligands” (Bristol-Myers Squibb Company, priority 2008, dated 2012)

The compounds below were run against T1, α-7 nicotinic acetylcholine receptor channel expressed in HEK 293 cells (Rattus norvegicus, UniProt Q05941) (assay: Ca2+-sensitive fluorescence-based FLIPR assay, α7 nicotinic ACh receptor channel function (agonist)). Settings: not given.
T1 construct: expressed in transfected cells
Format: cell-based
Experimental: I) α7 Nicotinic Acetycholine Receptor Binding. Membranes were prepared for binding using HEK293 cells stably expressing the rat α7 nicotinic acetycholine receptor (rat α7 nAChR). Cells were homogenized at 4° C. in hypotonic lysis buffer consisting of 10 mM Tris (pH 7.4), 5 mM EDTA and protease inhibitors and centrifuged at 32000×g for 20 minutes. The pellet was washed once in membrane wash buffer consisting of 50 mM Tris (pH 7.4), 1 mM EDTA and protease inhibitors and centrifuged at 32000×g for 20 minutes. This pellet was then resuspended in assay buffer consisting 50 mM KH2PO4 (pH 7.4 at 25° C.), 1 mM EDTA, 0.005% Triton-X 100 and 0.1% (v/v) Sigma Protease Inhibitor Cocktail. Aliquots were then frozen in dry ice/ethanol and kept at −80° C. until the day of the assay. II) A Ca^2+-Sensitive, Fluorescence-Based Assay α-7 for Nicotinic Acetylcholine Receptor Channel Function In Mammalian Cells (“FLIPR”). Summary: Lead compounds are evaluated for agonist activity at […], α3β4, […], and α1β1δ1ε sub-types of nicotinic ACh receptor ion channels expressed in mammalian HEK 293 cells. Agonist potency and efficacy values are determined from kinetic fluorescence Ca^2+ influx measurements made using a 384 well FLIPR (Fluorescence Image Plate Reader). […] In this assay, channel expressing HEK cell lines seeded in 384 well assay plates are loaded with a membrane permeant fluorescent Ca^2+ indicator dye, whose 510 nm green emission signal increases in response to elevation of intracellular Ca^2+ concentration. The basal fluorescence from the cells is monitored in real time, followed by the acute addition of test compounds.
Materials and Methods: Reagents: The acetomethoxy (AM) ester of the Ca^2+ indicator dye Fluo-4 was obtained from InVitrogen, (Carlsbad, Calif.). Acetylcholine and all buffer constituents were purchased from Sigma Chemical Company, St. Louis, Mo. G418 and Minimal Essential Medium were purchased from InVitrogen Life Technologies, Carlsbad, Calif. Fetal bovine serum was purchased from (InVitrogen, Carlsbad, Calif.).
Cell Culture: HEK-293 cells were grown in Minimal Essential Medium containing 10% (v/v) fetal bovine serum at 37° C. in a 5% CO2 incubator. HEK-293 cells stably expressing the ion channels were grown in the same medium with the addition of 500 μg/ml G418.
Ca^2+ flux assays of Ca^2+ channels expressed in HEK-293 cells: HEK-293 cells expressing the ion channels of interest were plated in 384 well, black-walled, clear-bottomed, poly-D-lysine coated plates at a density of ˜20,000 cells/well in 20 μl of Minimal Essential Medium containing 10% (v/v) fetal bovine serum and incubated for 2 days at 29° C. in a 5% CO2 incubator. Prior to assay, cells were loaded with the Fluo-4 AM ester. […] Dye loading was allowed to proceed for 90 minutes at room temperature at which time the dye loading solution was removed and replaced with 40 μl/well of Hanks buffer. Cells loaded with dye were loaded onto a FLIPR384 (Molecular Devices, Sunnyvale, Calif.). Fluo-4 dye was excited using the 488 nm line of an argon laser. Emission was filtered using a 540+/−30 nm bandpass filter. For evaluation of the effects of test compounds using the Ca^2+ flux assay, compounds to be tested were provided in assay ready plates. For nicotinic receptor ion channel expressing cells, the assay was initiated by the addition of 20 μl/well of Hanks buffer containing test compounds. For all assays, data were collected at 1 Hz for 10 seconds (baseline), at which time the compound containing stimulus buffers are added, and further measurements collected at 0.33 Hz for 3 min.
Data Analysis: The statistical robustness of the nicotinic receptor Ca^2+ flux assays is determined from blanks and totals wells. […] The raw fluorescence units data files generated on the FLIPR plate reader are automatically exported and processed by in-house data analysis tools.

T1 sequence (Q05941 23-502): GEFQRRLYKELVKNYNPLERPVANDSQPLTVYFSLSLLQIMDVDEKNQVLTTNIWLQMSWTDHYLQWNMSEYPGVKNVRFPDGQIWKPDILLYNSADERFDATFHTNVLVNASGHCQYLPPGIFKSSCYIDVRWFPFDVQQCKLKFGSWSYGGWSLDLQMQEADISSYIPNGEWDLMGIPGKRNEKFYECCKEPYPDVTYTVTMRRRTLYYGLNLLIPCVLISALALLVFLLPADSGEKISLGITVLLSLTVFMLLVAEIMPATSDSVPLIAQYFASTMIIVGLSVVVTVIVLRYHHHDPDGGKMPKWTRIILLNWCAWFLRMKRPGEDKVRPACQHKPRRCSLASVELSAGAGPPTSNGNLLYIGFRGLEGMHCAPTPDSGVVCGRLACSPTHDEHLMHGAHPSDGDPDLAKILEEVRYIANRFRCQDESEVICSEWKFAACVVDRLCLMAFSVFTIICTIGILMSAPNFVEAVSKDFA

SMILES | EC50 [nM]
c1cncc(/N=C2\NCC3(CN4CCC3CC4)O2)c1 (racemic) [Example 18, (E)-N-(1′-Azaspiro[oxazolidine-5,3′-bicyclo[2.2.2]octane]-2-ylidene)pyridin-3-amine] | 3930

Same assay, conditions: FLIPR α7 (EC50, nM), Table 1; HEK 293 cells, agonist Ca2+ flux

SMILES | EC50 [nM]
COc1nccnc1NC1=NCC2(CN3CCC2CC3)O1 (racemic) [Example 120] | 875

Same assay, conditions: FLIPR α7 activity rating (EC50, nM), Table 1; HEK 293 cells, agonist Ca2+ flux

SMILES | EC50 [nM]
c1ccc2sc(NC3=NCC4(CN5CCC4CC5)O3)nc2c1 (racemic) [Example 1, N-(benzo[d]thiazol-2-yl)-4H-1′-azaspiro[oxazole-5,3′-bicyclo[2.2.2]octan]-2-amine] | < 100
COc1ccc2nc(NC3=NCC4(CN5CCC4CC5)O3)sc2n1 (racemic) [Example 2, N-(5-Methoxythiazolo[5,4-b]pyridin-2-yl)-4H-1′-azaspiro[oxazole-5,3′-bicyclo[2.2.2]octan]-2-amine] | 100 to 1000
Clc1cccc2sc(NC3=NCC4(CN5CCC4CC5)O3)nc12 (racemic) [Example 7, N-(4-chlorobenzo[d]thiazol-2-yl)-4H-1′-azaspiro[oxazole-5,3′-bicyclo[2.2.2]octan]-2-amine] | 100 to 1000
Oc1ccc2nc(NC3=NCC4(CN5CCC4CC5)O3)sc2c1 (racemic) [Example 13, 2-(4H-1′-Azaspiro[oxazole-5,3′-bicyclo[2.2.2]octane]-2-ylamino)benzo[d]thiazol-6-ol] | < 100
C1CCc2sc(NC3=NCC4(CN5CCC4CC5)O3)nc2C1 (racemic) [Example 14, N-(4,5,6,7-Tetrahydrobenzo[d]thiazol-2-yl)-4H-1′-azaspiro[oxazole-5,3′-bicyclo[2.2.2]octan]-2-amine] | 100 to 1000
CC(C)c1csc(NC2=NCC3(CN4CCC3CC4)O2)n1 (racemic) [Example 15, N-(4-Isopropylthiazol-2-yl)-4H-1′-azaspiro[oxazole-5,3′-bicyclo[2.2.2]octan]-2-amine] | 100 to 1000
c1csc(NC2=NCC3(CN4CCC3CC4)O2)n1 (racemic) [Example 16, N-(Thiazol-2-yl)-4H-1′-azaspiro[oxazole-5,3′-bicyclo[2.2.2]octan]-2-amine] | 100 to 1000
COc1ccc(-c2nc(NC3=NCC4(CN5CCC4CC5)O3)sc2C)cc1 (racemic) [Example 17, N-(4-(4-Methoxyphenyl)-5-methylthiazol-2-yl)-4H-1′-azaspiro[oxazole-5,3′-bicyclo[2.2.2]octan]-2-amine] | 100 to 1000
c1cncc(/N=C2\NCC3(CN4CCC3CC4)O2)c1 (racemic) [Example 18, (E)-N-(1′-Azaspiro[oxazolidine-5,3′-bicyclo[2.2.2]octane]-2-ylidene)pyridin-3-amine] | 1000 to 100000
COc1ccc(-c2csc(NC3=NCC4(CN5CCC4CC5)O3)n2)cc1 (racemic) [Example 20, N-(4-(4-Methoxyphenyl)thiazol-2-yl)-4H-1′-azaspiro[oxazole-5,3′-bicyclo[2.2.2]octan]-2-amine] | 100 to 1000
Cc1cc(C)c2c(NC3=NCC4(CN5CCC4CC5)O3)nsc2n1 (racemic) [Example 114] | 100 to 1000
c1cnnc(NC2=NCC3(CN4CCC3CC4)O2)c1 (racemic) [Example 115] | 1000 to 100000
COc1ccc(NC2=NCC3(CN4CCC3CC4)O2)nn1 (racemic) [Example 116] | 1000 to 100000
COc1cncc(NC2=NCC3(CN4CCC3CC4)O2)n1 (racemic) [Example 118] | 1000 to 100000
COc1nccnc1NC1=NCC2(CN3CCC2CC3)O1 (racemic) [Example 120] | 100 to 1000
CC(C)(C)c1cc(NC2=NCC3(CN4CCC3CC4)O2)ncn1 (racemic) [Example 121] | 1000 to 100000
Cc1cc(NC2=NCC3(CN4CCC3CC4)O2)nc(C)n1 (racemic) [Example 123] | 1000 to 100000
Cc1ccc(NC2=NCC3(CN4CCC3CC4)O2)nn1 (racemic) [Example 124] | 1000 to 100000
c1ccc2sc(NC3=NCC4(CN5CCC4CC5)O3)nc2c1 (single isomer, unassigned) [Example 1a] | 1000 to 100000
c1ccc2sc(NC3=NCC4(CN5CCC4CC5)O3)nc2c1 (single isomer, unassigned) [Example 1b] | < 100
COc1ccc2nc(NC3=NCC4(CN5CCC4CC5)O3)sc2n1 (single isomer, unassigned) [Example 2a] | 1000 to 100000
COc1ccc2nc(NC3=NCC4(CN5CCC4CC5)O3)sc2n1 (single isomer, unassigned) [Example 2b] | 100 to 1000
